Data reported in ChEMBL document CHEMBL1201862, “PubChem BioAssay data set” (2004).
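Protocol summary: plate cells (96-well), add compound at 5 concentrations, incubate 48 h, interpolate endpoints linearly. GI50 is the concentration that inhibits growth by half.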 Active and inactive are the calls of the source. No stated cut-off is given here; in the data, active = GI50 up to about 1.1 µM and inactive = higher.

Key:
Assay in all cases: NCI-60 cell line screen, 48 h
XF498 = tested on: XF498
M19-MEL = tested on: M19-MEL
KM-20L2 = tested on: KM-20L2
LXFL 529 = tested on: LXFL 529
RXF 631 = tested on: RXF 631
DMS-114 = tested on: DMS-114
DMS-273 = tested on: DMS-273

SMILES	GI50 (XF498)	GI50 (M19-MEL)	GI50 (KM-20L2)	GI50 (LXFL 529)	GI50 (RXF 631)	GI50 (DMS-114)	GI50 (DMS-273)
O=c1c2cc(Br)ccc2nc(CCl)n1-c1ccc(O)c([N+](=O)[O-])c1	15.4 µM (inactive)	19.8 µM (inactive)	33 µM (inactive)	20.9 µM (inactive)	> 10 µM (inactive)	–	–
OCC1OC(c2nc(C3=NCCCN3)cs2)C(O)C1O (configuration not stated)	> 100 µM (inactive)	> 100 µM (inactive)	> 100 µM (inactive)	> 100 µM (inactive)	> 100 µM (inactive)	> 100 µM (inactive)	> 100 µM (inactive)
COC(=O)/C([Se]c1c(C)cc(C)cc1C)=C(/[Se]c1c(C)cc(C)cc1C)C(=O)OC	–	> 100 µM (inactive)	> 100 µM (inactive)	> 100 µM (inactive)	> 100 µM (inactive)	> 99.3 µM (inactive)	> 100 µM (inactive)
CCOc1cccc2nc3cccc(C(=O)NCCN(C)C)c3nc12	0.116 µM (active)	1.2 µM (inactive)	1.27 µM (inactive)	1.79 µM (inactive)	2.6 µM (inactive)	1.03 µM (active)	0.582 µM (active)
COc1ccc(NC(=O)C2C(=O)N(c3ccc(OC)cc3)C(=O)/C2=N\N)cc1 (configuration not stated)	–	> 100 µM (inactive)	> 100 µM (inactive)	> 100 µM (inactive)	> 100 µM (inactive)	> 100 µM (inactive)	–
c1ccc2c(c1)N=C(c1ccc3ccccc3c1)CC(c1cccc3ccccc13)S2 (configuration not stated)	35 µM (inactive)	29.9 µM (inactive)	43.5 µM (inactive)	24.2 µM (inactive)	34.4 µM (inactive)	24.3 µM (inactive)	36.1 µM (inactive)
CC(=O)OCCOCNC(=S)N/N=C/c1ccc2ccccc2n1	> 100 µM (inactive)	28.6 µM (inactive)	19.5 µM (inactive)	33.3 µM (inactive)	55.6 µM (inactive)	22.6 µM (inactive)	36.1 µM (inactive)
O=c1oc2c3ccc4ccccc4c3n(CCN3CCCCC3)c2c2ccccc12	21.4 µM (inactive)	25.6 µM (inactive)	> 61 µM (inactive)	43.9 µM (inactive)	24.6 µM (inactive)	> 76 µM (inactive)	38.3 µM (inactive)
Cl[Si]1(Cl)Oc2ccccc2O[Si](Cl)(Cl)Oc2ccccc2O1	15.2 µM (inactive)	12 µM (inactive)	27.1 µM (inactive)	–	7.78 µM (inactive)	1.88 µM (inactive)	7.38 µM (inactive)
CCOC(=O)C1(Br)C(c2ccccc2)NC(=O)NC1(C)Br (configuration not stated)	52.2 µM (inactive)	64.1 µM (inactive)	> 100 µM (inactive)	92.5 µM (inactive)	46.6 µM (inactive)	28.9 µM (inactive)	90.2 µM (inactive)
C=C1CCCC2OC(OC)CCC12 (configuration not stated)	> 100 µM (inactive)	> 100 µM (inactive)	> 100 µM (inactive)	> 100 µM (inactive)	> 100 µM (inactive)	> 100 µM (inactive)	> 100 µM (inactive)
COc1ccc(OC)c(NCC#N)c1	> 100 µM (inactive)	> 100 µM (inactive)	> 100 µM (inactive)	–	> 100 µM (inactive)	> 100 µM (inactive)	> 100 µM (inactive)
CC(=O)OCCOCNC(=S)N/N=C/c1cc([N+](=O)[O-])ccc1O	> 100 µM (inactive)	> 100 µM (inactive)	61.1 µM (inactive)	93.8 µM (inactive)	> 100 µM (inactive)	30.7 µM (inactive)	> 100 µM (inactive)
C=CCCC12CCCC(=O)C1Sc1ccc3ccccc3c12 (configuration not stated)	–	24.1 µM (inactive)	–	15.2 µM (inactive)	11.6 µM (inactive)	–	5.38 µM (inactive)
C=CCC1[C@@H](C(C)(C)C(C(C)=O)C(=O)C(=O)OC)OC(C(C)(C)C)N1C(=O)OC (some centres not stated)	> 100 µM (inactive)	> 100 µM (inactive)	> 100 µM (inactive)	–	> 100 µM (inactive)	–	–
COc1cc2c(c(OC)c1OC)-c1ccc(OC)c(=O)cc1[C@@H](N(C)C=O)CC2	0.112 µM (active)	–	0.0133 µM (active)	< 0.0184 µM (active)	0.0244 µM (active)	–	0.0116 µM (active)
